Results taken from US20220409727A1, “Metal Complexes Bearing Bisstyryl-Bipyridine Ligand and Their Use as Photosensitizer Agent in One and Two-Photon Photodynamic Therapy” (Paris Sciences et Lettres, priority 2019, published 2022).
Read-outs that look alike come from different tables or passages of the source.

Legend:
[1] = system: human cervical carcinoma (HeLa) cells; experiment: (Photo-)cytotoxicity on 2D cell monolayers, resazurin assay, HeLa; type: cell-based; details: for PI (480 nm): dark vs 480 nm (10 min, 3.1 J/cm^2)
Excerpt: Before an experiment, the cells were passaged three times.

[2] = system: non-cancerous retinal pigment epithelium (RPE-1) cells; experiment: (Photo-)cytotoxicity on 2D cell monolayers, resazurin assay, RPE-1; details: for PI (480 nm): RPE-1, dark vs 480 nm (10 min, 3.1 J/cm^2);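 as to all read-outs here: cells exposed to compound 4 h, medium exchanged, then irradiated or kept dark, 44 h further growth, viability by resorufin fluorescence (ex 540 nm, em 590 nm)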
HeLa MCTS = experiment: (Photo-)cytotoxicity on 3D multicellular tumor spheroids (ATP, CellTiter-Glo 3D); type: cell-based, human; details: for IC50: Homo sapiens
Description: autoclave. The hot emulsion was transferred into wells (50 μL per well) of a 96 cell culture well plate. The plates were exposed for 3 h to UV irradiation to ensure the sterility and allow the agarose solution to cool down. After this time, the agarose was overlayed with a HeLa cell suspension at a density of 3000 cells per well in 150 μL of media. The MCTS were cultivated and maintained at 37° C. in a cell culture incubator at 37° C. with 5% CO2 atmosphere. The culture media was replaced every two days. Within two-three days MCTs were formed from the cell suspension. The formation as well as integrity, diameter and volume of the MCTs was monitored by an Axio Observer Z1 (Carl Zeiss) phase contrast microscope. The volume was calculated using the following formula: V=4/3πr^3. The luminescence images along the z-axis were captured by a one-(λex=458 nm, λem=600-750 nm) or two-photon (λex=800 nm, λem=600-750 nm) excitation in the z-stack mode with a an LSM 880 (Carl Zeiss) laser scanning confocal microscope equipped with Argon and a Coherent Chameleon 2-Photon laser and a GaAsP detector.
The cytotoxicity of the compounds in 3D multicellular tumor spheroids (MCTS) was assessed by measurement of the ATP concentration. MCTS were treated with increasing concentrations of the compound (2% DMSO, v %) by replacing 50% of the media with drug supplemented media and incubation for 12 h. After this time, the MCTS were divided in three identical groups. The first group was strictly kept in the dark. The second group was exposed to a one-photon irradiation (500 nm, 10 J/cm^2) using a LED and the third group was exposed to a two-photon irradiation (800 nm, 10 J/cm^2) with a section interval of 5 μm using a LSM 880 (Carl Zeiss, Germany) laser scanning confocal microscope equipped with a Coherent Chameleon 2-Photon laser. After the irradiation, all groups were incubated additional 48 h. The ATP concertation was measured using a CellTiter-Glo 3D Cell Viability kit (Promega) by measuring the generated chemiluminescence with an infinite M200 PRO (Tecan) plate reader.

[3] = system: human glioblastoma astrocytoma (U373) cells
Description: (§1) The human glioblastoma astrocytoma (U373) cell line was cultured in MEM medium supplemented with 10% FBS, 1% NEAA (non-essential amino-acids) and 1% penicillin/streptomycin. […] The human retinal epithelial cells (RPE-1, non-cancerous cells immortalized with hTERT) were cultured in DMEM-F12 medium supplemented with 10% FBS and 1% penicillin/streptomycin. All cell lines were obtained from the American Type Culture Collection (ATCC) and cultured at 37° C. and 5% CO2. Before an experiment, the cells were passaged three times.
(§2) The cytotoxicity of the compounds was assessed by measuring cell viability using a fluorometric resazurin assay. The cultivated cells were seeded in triplicates in 96 well plates with a density of 4000 cells per well in 100 μL of media. After 24 h, the medium was removed and the cells were treated with increasing concentrations of the compound diluted in cell media achieving a total volume of 200 μL. The cells were incubated with the compound for 4 h. After this time, the media was removed and replaced with 200 μL of fresh medium. For the phototoxicity studies, the cells were exposed to light with an Atlas Photonics LUMOS BIO irradiator. Each well was constantly illuminated with either a 480 nm or 540 nm irradiation. During this time, the temperature was maintained constantly at 37° C. The cells were grown in the incubator for additional 44 h. For the determination of the dark cytotoxicity, the cells were not irradiated and after the medium exchange directly incubated for 44 h. After this time, the medium was replaced with fresh medium containing resazurin with a final concentration of 0.2 mg/mL. After 4 h incubation, the amount of the fluorescent product resorufin was determined upon excitation at 540 nm and measurement its emission at 590 nm using a SpectraMax M2 Microplate Reader (Molecular Devices).
(§3) The obtained data was analyzed with the GraphPad Prism software.

[4] = system: human glioblastoma astrocytoma (U373) cells; experiment: (Photo-)cytotoxicity on 2D cell monolayers, resazurin assay, U373; details: for IC50: Homo sapiens, U373 MG
Description: as §1, §2, §3

[5] = system: mouse colon carcinoma (CT-26) cells
[6] = system: mouse colon carcinoma (CT-26) cells; experiment: (Photo-)cytotoxicity on 2D cell monolayers, resazurin assay, CT-26; details: for IC50: Mus musculus
[7] = dark, 4 h incubation, compounds 1-3 as chloride salts, read-out: IC50 dark
[8] = read-out: IC50 480 nm (10 min, 3.1 J/cm^2), irradiation 480 nm (10 min, 3.1 J/cm^2), compounds 1-3 as chloride salts

Molecule	PI (480 nm) [1]	IC50 [1, 7] [µM]	IC50 [1, 8] [µM]	PI (480 nm) [2]	also measured
COc1cccc(/C=C/c2ccnc(-c3cc(/C=C/c4cccc(OC)c4)ccn3)c2)c1.F[P-](F)(F)(F)(F)F.F[P-](F)(F)(F)(F)F.[Ru+2].c1ccc(-c2ccccn2)nc1.c1ccc(-c2ccccn2)nc1 [Compound 12, [Ru(bpy)2((E,E′)-4,4′-Bis[m-methoxystyryl]-2,2′-bipyridine)][PF6]2]	>167	> 100	0.6 ± 0.3	>63	–
COc1ccccc1C=Cc1ccnc(-c2cc(C=Cc3ccccc3OC)ccn2)c1.F[P-](F)(F)(F)(F)F.F[P-](F)(F)(F)(F)F.[Ru+2].c1ccc(-c2ccccn2)nc1.c1ccc(-c2ccccn2)nc1 [Compound 13, [Ru(bpy)2((E,E′)-4,4′-Bis[o-methoxystyryl]-2,2′-bipyridine)][PF6]2]	>124	62 ± 10	0.5 ± 0.1	>66	–
F[P-](F)(F)(F)(F)F.F[P-](F)(F)(F)(F)F.Fc1ccc(C=Cc2ccnc(-c3cc(C=Cc4ccc(F)cc4)ccn3)c2)cc1.[Ru+2].c1ccc(-c2ccccn2)nc1.c1ccc(-c2ccccn2)nc1 [Compound 14, [Ru(bpy)2((E,E′)-4,4′-Bis[p-fluorostyryl]-2,2′-bipyridine)][PF6]2]	>125	> 100	0.8 ± 0.1	>68	–
F[P-](F)(F)(F)(F)F.F[P-](F)(F)(F)(F)F.Oc1ccc(/C=C/c2ccnc(-c3cc(/C=C/c4ccc(O)cc4)ccn3)c2)cc1.[Ru+2].c1ccc(-c2ccccn2)nc1.c1ccc(-c2ccccn2)nc1 [Compound 15, [Ru(bpy)2((E,E′)-4,4′-Bis[p-hydroxystyryl]-2,2′-bipyridine)][PF6]2]	>100	> 100	1 ± 0.3	>9	–
COc1ccc(/C=C/c2ccnc(-c3cc(/C=C/c4ccc(OC)cc4)ccn3)c2)cc1.F[P-](F)(F)(F)(F)F.F[P-](F)(F)(F)(F)F.[Os+2].c1ccc(-c2ccccn2)nc1.c1ccc(-c2ccccn2)nc1 [Compound 16, [Os(bpy)2((E,E′)-4,4′-Bis[p-methoxystyryl]-2,2′-bipyridine)][PF6]2]	>4	> 100	27 ± 6	>3	–
COc1ccc(/C(C)=C/c2ccnc(-c3cc(/C=C(\C)c4ccc(OC)cc4)ccn3)c2)cc1.F[P-](F)(F)(F)(F)F.F[P-](F)(F)(F)(F)F.[Ru+2].c1ccc(-c2ccccn2)nc1.c1ccc(-c2ccccn2)nc1 [Compound 18]	>6	> 100	16.7 ± 0.7	>3	–
COc1ccc(/C=C/c2ccnc(-c3cc(/C=C/c4ccc(OC)cc4)ccn3)c2)cc1.F[P-](F)(F)(F)(F)F.F[P-](F)(F)(F)(F)F.[Ru+2].c1cnc(-c2cnccn2)cn1.c1cnc(-c2cnccn2)cn1 [Compound 19, [Ru(bpz)2((E,E′)-4,4′-Bis[p-methoxystyryl]-2,2′-bipyridine)][PF6]2]	>2	> 100	59 ± 8	–	–
C1=Cc2nc1c(-c1ccccc1)c1ccc([nH]1)c(-c1ccccc1)c1nc(c(-c3ccccc3)c3ccc([nH]3)c2-c2ccccc2)C=C1 [Compound H2TPP, tetraphenylporphyrin, reference compound]	–	–	–	–	IC50 (HeLa MCTS; dark, 12 h incubation, read-out: IC50 dark): > 100 µM; IC50 (HeLa MCTS; light or radiation study, 1-Photon irradiation (500 nm, 10 J/cm^2), read-out: IC50 1-Photon irradiation (500 nm, 10 J/cm^2)): > 100 µM; IC50 (HeLa MCTS; light or radiation study, 2-Photon irradiation (800 nm, 10 J/cm^2, section interval of 5 μm), read-out: IC50 2-Photon irradiation (800 nm, 10 J/cm^2)): > 100 µM; PI (2-Photon) (HeLa MCTS; dark vs 2-Photon irradiation (800 nm, 10 J/cm^2)): >100
C=CC1=C(C)c2cc3[nH]c(cc4nc(cc5[nH]c(cc1n2)c(C)c5CCC(=O)O)C(CCC(=O)O)=C4C)c(C)c3C=C [PpIX, Protoporphyrin IX, reference compound]	>40.0	–	–	>26.3	IC50 [3]: 1200 ± 300 nM; IC50 ([1]; Homo sapiens, dark, 4 h incubation, compounds 1-3 as chloride salts, read-out: IC50 dark): > 100 µM; IC50 ([1]; Homo sapiens, light or radiation study, 10 min, read-out: IC50 480 nm (10 min), irradiation 480 nm (10 min, 3.1 J/cm^2), compounds 1-3 as chloride salts): 2.5 ± 0.1 µM; IC50 ([1]; Homo sapiens, light or radiation study, 40 min, read-out: IC50 540 nm (40 min), irradiation 540 nm (40 min, 9.5 J/cm^2), compounds 1-3 as chloride salts): 2.1 ± 0.3 µM; PI (540 nm) ([1]; dark vs 540 nm (40 min, 9.5 J/cm^2)): >47.6; IC50 ([4]; 4 h, read-out: IC50 dark): 10.1 ± 0.7 µM; IC50 ([4]; light or radiation study, 10 min, read-out: IC50 480 nm (10 min, 3.1 J/cm^2)): 1.3 ± 0.2 µM; PI (480 nm) ([4]; U373, dark vs 480 nm (10 min, 3.1 J/cm^2)): 7.8; PI (540 nm) ([4]; U373, dark vs 540 nm (40 min, 9.5 J/cm^2)): 8.4; IC50 [5]: 400 ± 200 nM; PI (480 nm) ([6]; CT-26, dark vs 480 nm (10 min, 3.1 J/cm^2)): 7.0; PI (540 nm) ([6]; CT-26, dark vs 540 nm (40 min, 9.5 J/cm^2)): 5.6; IC50 ([6]; CT26, 4 h, read-out: IC50 dark): 2800 ± 500 nM; IC50 ([6]; CT26, light or radiation study, 40 min, read-out: IC50 540 nm (40 min, 9.5 J/cm^2)): 500 ± 200 nM; PI (540 nm) ([2]; RPE-1, dark vs 540 nm (40 min, 9.5 J/cm^2)): >30.3
[Ru(bpy)2((E,E′)-4,4′-Bis[p-aminostyryl]-2,2′-bipyridine)][PF6]2 [Compound 17]	>71	> 100	1.4 ± 0.1	>13	–
